Several values for one entry are separate records, joined by “and”; a condition that tells them apart may be missing. Equal values may be shown once. Toxic doses and inconclusive results are not listed. The calls were made as follows: active = survival T/C of 150% or more; inactive = T/C below 125% in these data.
System: P388 leukemia ip, CD2F1 mice, survival T/C
Assay: NCI In Vivo Anticancer Drug Screen. Data for tumor model P388 Leukemia (intraperitoneal) in CD2F1 (CDF1) mice
Details: endpoint: median survival time, higher = longer survival
Procedure, shortened: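 Mice carrying the transplanted tumor received test compound or vehicle. Survival was recorded in each group, and the value is the treated-group measurement divided by that of the vehicle-treated control group.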

[1] = dose: 50.0 mg/kg/injection, schedule: Q01DX009 (ip), vehicle: saline
[2] = dose: 200.0 mg/kg/injection, schedule: Q01DX009 (ip), vehicle: saline
[3] = dose: 50.0 mg/kg/injection, schedule: Q01DX009 (ip), vehicle: Klucel (hydroxypropylcellulose) (HPC)
[4] = dose: 100.0 mg/kg/injection, schedule: Q01DX009 (ip), vehicle: Klucel (hydroxypropylcellulose) (HPC)
[5] = dose: 200.0 mg/kg/injection, schedule: Q01DX005 (ip), vehicle: saline with Tween-80
[6] = dose: 12.5 mg/kg/injection, schedule: Q01DX009 (ip), vehicle: saline
[7] = dose: 25.0 mg/kg/injection, schedule: Q01DX009 (ip), vehicle: saline
[8] = dose: 50.0 mg/kg/injection, schedule: Q01DX009 (ip), vehicle: saline with Tween-80
[9] = dose: 100.0 mg/kg/injection, schedule: Q01DX009 (ip), vehicle: saline with Tween-80
[10] = dose: 25.0 mg/kg/injection, schedule: Q01DX009 (ip), vehicle: other
[11] = dose: 50.0 mg/kg/injection, schedule: Q01DX009 (ip), vehicle: other
[12] = dose: 100.0 mg/kg/injection, schedule: Q01DX009 (ip), vehicle: other
[13] = dose: 200.0 mg/kg/injection, schedule: Q01DX009 (ip), vehicle: other
[14] = dose: 200.0 mg/kg/injection, schedule: Q01DX009 (ip), vehicle: saline with Tween-80

Measured: T/C

N#CCCSc1ccccc1N=Cc1ccccc1O
inactive: [1] 101 % of control | dose: 100.0 mg/kg/injection, schedule: Q01DX009 (ip), vehicle: saline 99 % of control | [2] 95 % of control

CCCCCCCCCCOC(=O)c1ccccc1
inactive: [3] 98 % of control | [4] 93 % of control | dose: 200.0 mg/kg/injection, schedule: Q01DX009 (ip), vehicle: Klucel (hydroxypropylcellulose) (HPC) 98 % of control

Nc1nc(N)c2ncn(-c3ccc(Br)cc3)c2n1
inactive: dose: 50.0 mg/kg/injection, schedule: Q01DX005 (ip), vehicle: saline with Tween-80 95 % of control | dose: 100.0 mg/kg/injection, schedule: Q01DX005 (ip), vehicle: saline with Tween-80 92 % of control | [5] 91 % of control

CC(=O)NC1=C(N2CC2C)C(=O)C(NC(C)=O)=C(N2CC2C)C1=O (stereo unspecified)
active: dose: 2.66 mg/kg/injection, schedule: Q01DX009 (ip), vehicle: saline 160 % of control | dose: 4.0 mg/kg/injection, schedule: Q01DX009 (ip), vehicle: saline 163 % of control | dose: 6.0 mg/kg/injection, schedule: Q01DX009 (ip), vehicle: saline 210 % of control
inactive: dose: 1.78 mg/kg/injection, schedule: Q01DX009 (ip), vehicle: saline 122 % of control

COc1cc(NCCCCCCNCC(C)C)c2nccc(C)c2c1
inactive: dose: 6.25 mg/kg/injection, schedule: Q01DX009 (ip), vehicle: saline 95 % of control | [6] 95 % of control | [7] 96 % of control

COC(=O)C1CC(OC(C)=O)C(O)C(O)C1OC(C)=O.[O]=[Os]=[O] (stereo unspecified)
inactive: dose: 200.0 mg/kg/injection, schedule: Q01DX001 (ip), vehicle: saline 123 % of control

N#CCCC[n+]1cc2ccccc2c2ccccc21
inactive: dose: 25.0 mg/kg/injection, schedule: Q01DX005 (ip), vehicle: saline 100 % of control | dose: 50.0 mg/kg/injection, schedule: Q01DX005 (ip), vehicle: saline 101 % of control and 109 % of control | dose: 100.0 mg/kg/injection, schedule: Q01DX005 (ip), vehicle: saline 105 % of control and 112 % of control

CCOC(c1ccc(OC)cc1)c1cc(C(C)(C)C)cc(C(C)(C)C)c1O (stereo unspecified)
inactive: dose: 50.0 mg/kg/injection, schedule: Q01DX005 (ip), vehicle: distilled water + alcohol 103 % of control | dose: 100.0 mg/kg/injection, schedule: Q01DX005 (ip), vehicle: distilled water + alcohol 105 % of control | dose: 200.0 mg/kg/injection, schedule: Q01DX005 (ip), vehicle: distilled water + alcohol 107 % of control

Cn1c([N+](=O)[O-])cnc1/C=C1/Cc2cc(OCCN3CCCCCC3)ccc2C1=O
inactive: dose: 25.0 mg/kg/injection, schedule: Q01DX009 (ip), vehicle: saline with Tween-80 110 % of control | [8] 101 % of control | [9] 109 % of control

COC(=O)/C=C1/Nc2cnc(Nc3ccccc3)nc2N(c2ccccc2)C1=O
inactive: dose: 40.0 mg/kg/injection, schedule: Q01DX009 (ip), vehicle: saline 87 % of control | dose: 80.0 mg/kg/injection, schedule: Q01DX009 (ip), vehicle: saline 89 % of control | dose: 160.0 mg/kg/injection, schedule: Q01DX009 (ip), vehicle: saline 87 % of control

COc1ccc2ccccc2c1C(=O)CCCc1ccccc1
inactive: [10] 98 % of control | [11] 98 % of control | [12] 98 % of control | [13] 92 % of control | dose: 400.0 mg/kg/injection, schedule: Q01DX009 (ip), vehicle: other 105 % of control

Nc1ccc(Cl)cc1C(=O)N1CCN(c2ccc([N+](=O)[O-])cn2)CC1
inactive: dose: 7.5 mg/kg/injection, schedule: Q01DX005 (ip), vehicle: Klucel (hydroxypropylcellulose) (HPC) 99 % of control | dose: 15.0 mg/kg/injection, schedule: Q01DX005 (ip), vehicle: Klucel (hydroxypropylcellulose) (HPC) 92 % of control | dose: 30.0 mg/kg/injection, schedule: Q01DX005 (ip), vehicle: Klucel (hydroxypropylcellulose) (HPC) 93 % of control

O=C(Cl)CC1CC(=O)OC1=O (stereo unspecified)
inactive: [8] 100 % of control | [9] 95 % of control

COC(=O)C1=[N+]([O-])OC(C(=O)OC)C1c1ccc(F)cc1 (stereo unspecified)
inactive: dose: 60.0 mg/kg/injection, schedule: Q01DX005 (ip), vehicle: saline with Tween-80 93 % of control | dose: 120.0 mg/kg/injection, schedule: Q01DX005 (ip), vehicle: saline with Tween-80 90 % of control | dose: 240.0 mg/kg/injection, schedule: Q01DX005 (ip), vehicle: saline with Tween-80 94 % of control

CS(=O)(=O)CCN(N=O)C(=N)N[N+](=O)[O-]
active: [8] 159 % of control | dose: 66.0 mg/kg/injection, schedule: Q04DX003 (ip), vehicle: saline with Tween-80 154 % of control | dose: 150.0 mg/kg/injection, schedule: Q04DX003 (ip), vehicle: saline with Tween-80 154 % of control
inactive: dose: 12.5 mg/kg/injection, schedule: Q04DX003 (ip), vehicle: saline with Tween-80 118 % of control | dose: 25.0 mg/kg/injection, schedule: Q04DX003 (ip), vehicle: saline with Tween-80 118 % of control | dose: 50.0 mg/kg/injection, schedule: Q04DX003 (ip), vehicle: saline with Tween-80 118 % of control

Cc1nc(O)c([N+](=O)[O-])c(=O)[nH]1
inactive: [10] 99 % of control | [11] 98 % of control | [12] 110 % of control | [13] 102 % of control

Oc1ccccc1C=NCCCN=Cc1ccccc1O
inactive: dose: 18.75 mg/kg/injection, schedule: Q01DX009 (ip), vehicle: saline with Tween-80 103 % of control | dose: 37.5 mg/kg/injection, schedule: Q01DX009 (ip), vehicle: saline with Tween-80 110 % of control | [8] 109 % of control | dose: 75.0 mg/kg/injection, schedule: Q01DX009 (ip), vehicle: saline with Tween-80 111 % of control | [14] 121 % of control | dose: 400.0 mg/kg/injection, schedule: Q01DX009 (ip), vehicle: saline with Tween-80 119 % of control

O=C1CS/C(=N/N=C/c2nc3ccccc3c(=O)n2-c2ccc(Cl)cc2)N1c1ccccc1
inactive: [5] 88 % of control

Cc1c(Cl)cccc1NC(=O)Nc1nccs1
inactive: dose: 25.0 mg/kg/injection, schedule: Q01DX009 (ip), vehicle: Klucel (hydroxypropylcellulose) (HPC) 90 % of control | [3] 93 % of control | [4] 100 % of control

CCC(c1ccc(OCCS(=O)(=O)OC)cc1)C(CC)c1ccc(OCCS(=O)(=O)OC)cc1 (stereo unspecified)
inactive: dose: 12.5 mg/kg/injection, schedule: Q01DX009 (ip), vehicle: suspension in saline 100 % of control | dose: 25.0 mg/kg/injection, schedule: Q01DX009 (ip), vehicle: suspension in saline 94 % of control | [1] 91 % of control | dose: 50.0 mg/kg/injection, schedule: Q01DX009 (ip), vehicle: suspension in saline 87 % of control | [2] 92 % of control

N#CC(C#N)C1C=C/C(=N\O)C1 (stereo unspecified)
inactive: [6] 99 % of control | [7] 101 % of control | [8] 109 % of control | [1] 102 % of control

Cc1ccc(N2C(=S)N(c3cccc(Cl)c3Cl)C(=O)C(N=Nc3cccc(Cl)c3Cl)C2O)cc1 (stereo unspecified)
inactive: dose: 100.0 mg/kg/injection, schedule: Q01DX001 (ip), vehicle: Klucel (hydroxypropylcellulose) (HPC) 97 % of control | dose: 200.0 mg/kg/injection, schedule: Q01DX001 (ip), vehicle: Klucel (hydroxypropylcellulose) (HPC) 98 % of control | dose: 400.0 mg/kg/injection, schedule: Q01DX001 (ip), vehicle: Klucel (hydroxypropylcellulose) (HPC) 97 % of control

CC(C)N(CCO)CC(O)Cn1cnc2ncnc(N)c21 (stereo unspecified)
inactive: dose: 60.0 mg/kg/injection, schedule: Q01DX005 (ip), vehicle: saline 94 % of control | dose: 120.0 mg/kg/injection, schedule: Q01DX005 (ip), vehicle: saline 97 % of control | dose: 240.0 mg/kg/injection, schedule: Q01DX005 (ip), vehicle: saline 94 % of control

C[C@]12C=CC(=O)C=C1CC[C@@H]1[C@@H]2[C@@H](O)C[C@@]2(C)[C@H]1CC[C@]2(O)C(=O)COC(=O)CCC(=O)O
inactive: dose: 66.0 mg/kg/injection, schedule: Q01DX009 (ip), vehicle: saline with Tween-80 109 % of control | [9] 109 % of control | dose: 150.0 mg/kg/injection, schedule: Q01DX009 (ip), vehicle: saline with Tween-80 109 % of control

O=C1NC(=O)c2c3ccc(c21)CCc1ccc(c2c1C(=O)NC2=O)CC3
inactive: [8] 97 % of control | [9] 92 % of control | [14] 92 % of control

CCOC(=O)Cc1ccnc(C)c1
inactive: [8] 90 % of control | [9] 90 % of control | [14] 100 % of control
